Laboratory results reported in patent US4619943A, “Neolignans of Saururus cernuus L and analogues thereof” (priority 1984, dated 1986).
Converted amounts (≈) assume the structure as drawn. “And” between values parts separate entries of the source, which are not always exact repeats. Identical values can stand only once.

Tests used:
[1] = Suppression of aggressiveness in isolated mice; format: in vivo, male Swiss mice; conditions: eighty minutes after injection; for % Inhibition of Aggressiveness: 2 mg/Kg
Protocol: They were not disturbed except for replacement of food. Under these conditions, about two thirds of the mice became aggressive as manifested by vicious attacks within one minute on a nonisolated male mouse placed in their cage. Such combative mice were divided into two groups. With one group held as the control, the mice in other group were injected with SC-8 at 2 or 1 mg/Kg. The mice were tested for aggressiveness before the injection and eighty minutes after the injection. If no fighting took place with a nonisolated mouse introduced into the cage, this was regarded as inhibition of aggressiveness (P. A. J. Janssen, A. H. Jageneau and C. J. E. Niemegeers; J. Pharmacol, Exp. Ther. 129, 471 (1960)). The experiment was repeated with SC-8 at 2 mg/Kg.

[2] = system: southern armyworm (Spodoptera eridania); assay: Insecticidal activity against southern armyworm; format: in vivo; conditions: both application rates, 1000 and 500 ppm, 14 days
Protocol: (§1) The present compounds were tested for insecticidal activity against cabbage looper (Trichoplusia ni [Hubner]), and southern armyworm (Spodoptera eridania) at application rates of 1000 and 500 ppm. The tests were conducted in petri dishes containing a solid food source in which the test compounds had been incorporated. The petri dishes containing the treated food source were infested with second instar larvae of southern armyworms or cabbage loopers. Ten larvae per replicate and two replicates per test rate were used. Mortality data were taken 14 days after infestation.

[3] = system: Pimephales promelas; assay: Acute toxicity to fish; format: in vivo; conditions: for % Mortality, Avg / % Mortality, single replicates (1 to 6): 2 hours; for % Mortality, single replicates (1 to 6): 120 min
Protocol: Many compounds having insecticidal activity also show toxicity to fish. For example, rotenoids, pyrethrins, and DDT have significant toxicity to fish. For this reason, fish have been used frequently to indicate potential insecticidal activity. The present compounds were tested for acute toxicity to fish by the method described in "Methods For Acute Toxicity Tests With Fish, Macro-Invertebrates and Amphibians", EPA 660/3-75-009, Committee on Methods for Toxicity Tests With Aquatic Organisms, Environmental Protection Agency, Corvallis, OR, 1975.
The fish, commonly known as Missouri minnows or fat heads (Pimephales promelas, family, cyprinidae) were purchased from a local hatchery and equilibrated to the new surroundings for 24 hours. They were kept in deionized water, previously adjusted to pH 6.5 with phosphate buffer at 23° C. Sufficient oxygen was provided, and the fish were deprived of food during the test period.
Groups of six fish were placed in containers with different concentrations of the test compound. The percent mortality was recorded every 30 minutes. The LC 50 values (mg/L) and 95% confidence limits were determined from the percent mortality data after 2 hours of exposure from 6 separate replicates using the method of Lichfield and Wiloxon [(J. Pharmacology and Exp. Therepeutics, 96, 99-113 (1949))].

[4] = Acute toxicity (LD50) in mice, procedure of Turner; format: in vivo, male Swiss mice; conditions: mouse, in vivo, ip; mice, intraperitoneal, 24 hours
[5] = system: mice; assay: Acute toxicity (LD50) in mice, procedure of Turner; format: in vivo, male Swiss mice
[6] = system: M. incognita; assay: Effect on nematode motility; format: in vivo, Meloidogyne incognita; conditions: 24 hours, of 300 juveniles; for Number of Motile Nematodes, Avg.: water 233.6
Protocol: In a separate test, 300 juveniles of M. incognita were placed in a container closed with a screen of openings 17 μm and exposed to various concentrations of the test compound. After 24 hours, the number of nematodes able to migrate downward (from the inverted container) were counted. Eight replicates were run for each sample, and the results were analyzed by Duncan's

[7] = system: cabbage looper (Trichoplusia ni [Hubner]); assay: Insecticidal activity against cabbage looper; format: in vivo; conditions: Trichoplusia ni, 336 h, second instar larvae, 14 days
Protocol: as §1

COc1ccc(C(O)C(C)Oc2ccc([C@@H]3O[C@@H](c4ccc(OC(C)C(O)c5ccc(OC)c(OC)c5)c(OC)c4)[C@@H](C)[C@@H]3C)cc2OC)cc1OC (stereo partly drawn) [SC-8, 2α,5β-bis[3-methoxy-4-{threo-3-hydroxy-3-(3,4-dimethoxyphenyl)}isopropoxyphenyl]-3α,4β-dimethyltetrahydrofuran]
Inhibition of Aggressiveness (in words) ([1]; 1 mg/Kg, 3 mice): Slight
% Inhibition of Aggressiveness ([1]; 3 mice): > 75%
% Inhibition of Aggressiveness ([1]; 5 mice, repeat experiment): > 75%
insecticidal activity, southern armyworm [2]: inactive
% Mortality, Avg ([3]; 0.13 mg/L): 9%
% Mortality, single replicates (1 to 6) ([3]; 0.13 mg/L): 0% (3×) and 17% (3×)
% Mortality, Avg ([3]; 0.25 mg/L): 28%
% Mortality, single replicates (1 to 6) ([3]; 0.25 mg/L): 33% (4×) and 17% (2×)
% Mortality, Avg ([3]; 0.38 mg/L): 50%
% Mortality, single replicates (1 to 6) ([3]; 0.38 mg/L): 67% and 50% (4×) and 33%
% Mortality, Avg ([3]; 0.5 mg/L): 64%
% Mortality, single replicates (1 to 6) ([3]; 0.5 mg/L): 67% (5×) and 50%
% Mortality, Avg ([3]; 0.75 mg/L): 75%
% Mortality, single replicates (1 to 6) ([3]; 0.75 mg/L): 83% (3×) and 67% (3×)
% Mortality, Avg ([3]; 1.0 mg/L): 97%
% Mortality, single replicates (1 to 6) ([3]; 1.0 mg/L): 100% (5×) and 83%
LC50 ([3]; 2 hours of exposure, pH 6.5, 23° C): 0.48 µg/mL (≈ 0.655 µM)
LD50 at 24 h [4]: 5.2 ± 0.2 mg/kg
LD10 ([5]; mice): 4 mg/kg
toxicity by the oral route ([5]; mice, oral, dose range of 10-20 mg/Kg): toxic
absorbability following oral administration ([5]; oral, inferred from oral toxicity at 10-20 mg/Kg): ready absorbability
Number of Motile Nematodes, single replicates (1 to 8) ([6]; 1 ppm): 258 and 233 and 186 and 340 and 295 and 248 and 103 and 238
Number of Motile Nematodes, Avg. ([6]; 1 ppm): 237.6
Number of Motile Nematodes, single replicates (1 to 8) ([6]; 5 ppm): 113 and 294 and 223 and 236 and 264 and 256 and 205 and 211
Number of Motile Nematodes, Avg. ([6]; 5 ppm): 225.3
Number of Motile Nematodes, single replicates (1 to 8) ([6]; 10 ppm): 188 and 170 and 174 and 263 and 204 and 214 and 228
Number of Motile Nematodes, Avg. ([6]; 10 ppm): 201.4
Number of Motile Nematodes, single replicates (1 to 8) ([6]; 25 ppm): 67 and 85 and 97 and 56 and 99 and 120 and 131 and 84
Number of Motile Nematodes, Avg. ([6]; 25 ppm): 92.4
Number of Motile Nematodes, single replicates (1 to 8) ([6]; 50 ppm): 163 and 223 and 109 and 102 and 31 and 232 and 225 and 108
Number of Motile Nematodes, Avg. ([6]; 50 ppm): 149.1
mortality at 500 ppm ([7]; 500 ppm in food): 90%
mortality at 1000 ppm ([7]; 1000 ppm in food): 100%
